Results as given in PubChem BioAssay (NCI).
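Assay format: 96-well plates, 48-hour exposure. GI50 marks 50% less growth. Definition used: TGI = concentration required for complete inhibition of growth.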

Assays:
Experiment in all cases: NCI anticancer screen, dose series, 48 h
U251 CNS = test system: U251 CNS
HS 578T breast = test system: HS 578T breast
OVCAR-4 ovarian = test system: OVCAR-4 ovarian
UACC-257 melanoma = test system: UACC-257 melanoma
NCI-H460 lung = test system: NCI-H460 lung
COLO 205 colon = test system: COLO 205 colon
SF-539 CNS = test system: SF-539 CNS
NCI-H23 lung = test system: NCI-H23 lung
SN12C renal = test system: SN12C renal
MDA-MB-231 breast = test system: MDA-MB-231 breast
OVCAR-3 ovarian = test system: OVCAR-3 ovarian
SF-268 CNS = test system: SF-268 CNS
OVCAR-5 ovarian = test system: OVCAR-5 ovarian
MOLT-4 leukemia = test system: MOLT-4 leukemia
HCT-116 colon = test system: HCT-116 colon
OVCAR-8 ovarian = test system: OVCAR-8 ovarian
M14 melanoma = test system: M14 melanoma
SK-MEL-28 melanoma = test system: SK-MEL-28 melanoma
SK-MEL-2 melanoma = test system: SK-MEL-2 melanoma
IGROV1 ovarian = test system: IGROV1 ovarian
SW-620 colon = test system: SW-620 colon
CCRF-CEM leukemia = test system: CCRF-CEM leukemia
NCI-H522 lung = test system: NCI-H522 lung
UO-31 renal = test system: UO-31 renal
SF-295 CNS = test system: SF-295 CNS
MDA-MB-468 breast = test system: MDA-MB-468 breast
HOP-92 NSCLC = test system: HOP-92 NSCLC
CAKI-1 renal = test system: CAKI-1 renal
SNB-75 CNS = test system: SNB-75 CNS
786-0 renal = test system: 786-0 renal
K-562 leukemia = test system: K-562 leukemia
SR leukemia = test system: SR leukemia
NCI/ADR-RES ovarian = test system: NCI/ADR-RES ovarian
HCT-15 colon = test system: HCT-15 colon
MALME-3M melanoma = test system: MALME-3M melanoma
ACHN renal = test system: ACHN renal
SNB-19 CNS = test system: SNB-19 CNS
KM12 colon = test system: KM12 colon
DU-145 prostate = test system: DU-145 prostate
LOX IMVI melanoma = test system: LOX IMVI melanoma
SK-MEL-5 melanoma = test system: SK-MEL-5 melanoma
PC-3 prostate = test system: PC-3 prostate
RXF 393 renal = test system: RXF 393 renal
BT-549 breast = test system: BT-549 breast
HOP-62 NSCLC = test system: HOP-62 NSCLC
SK-OV-3 ovarian = test system: SK-OV-3 ovarian
NCI-H226 lung = test system: NCI-H226 lung
A549 NSCLC = test system: A549 NSCLC
HCC-2998 colon = test system: HCC-2998 colon
A498 renal = test system: A498 renal
RPMI-8226 leukemia = test system: RPMI-8226 leukemia
MCF7 breast = test system: MCF7 breast
T-47D breast = test system: T-47D breast
UACC-62 melanoma = test system: UACC-62 melanoma
EKVX NSCLC = test system: EKVX NSCLC
TK-10 renal = test system: TK-10 renal
HL-60(TB) leukemia = test system: HL-60(TB) leukemia
MDA-MB-435 = test system: MDA-MB-435
HT29 colon = test system: HT29 colon

## O=C1NC(=NC23CC4CC(CC(C4)C2)C3)N/C1=C\c1ccc2ncoc2c1
U251 CNS
  GI50: 303 nM
  TGI: > 100000 nM
HS 578T breast
  GI50: 412 nM
  TGI: 4200 nM
OVCAR-4 ovarian
  GI50: 902 nM
  TGI: > 43300 nM
UACC-257 melanoma
  GI50: 863 nM
  TGI: > 34400 nM
NCI-H460 lung
  GI50: 385 nM
  TGI: > 55500 nM
COLO 205 colon
  GI50: 405 nM
  TGI: 5910 nM
SF-539 CNS
  GI50: 103 nM
  TGI: 474 nM
NCI-H23 lung
  GI50: 217 nM
  TGI: 1510 nM
SN12C renal
  GI50: 254 nM
  TGI: > 100000 nM
MDA-MB-231 breast
  GI50: 369 nM
  TGI: 8050 nM
OVCAR-3 ovarian
  GI50: 243 nM
  TGI: > 84300 nM
SF-268 CNS
  GI50: 412 nM
  TGI: 12800 nM
OVCAR-5 ovarian
  GI50: 322 nM
  TGI: > 100000 nM
MOLT-4 leukemia
  GI50: 281 nM
  TGI: > 100000 nM
HCT-116 colon
  GI50: 99.3 nM
  TGI: > 100000 nM
OVCAR-8 ovarian
  GI50: 293 nM
  TGI: > 100000 nM
M14 melanoma
  GI50: 325 nM
  TGI: > 100000 nM
SK-MEL-28 melanoma
  GI50: 333 nM
  TGI: 1830 nM
SK-MEL-2 melanoma
  GI50: 500 nM
  TGI: 1320 nM
IGROV1 ovarian
  GI50: 430 nM
  TGI: > 44800 nM
SW-620 colon
  GI50: 318 nM
  TGI: > 100000 nM
CCRF-CEM leukemia
  GI50: 267 nM
NCI-H522 lung
  GI50: 230 nM
  TGI: 5630 nM
UO-31 renal
  GI50: 358 nM
SF-295 CNS
  GI50: 487 nM
  TGI: > 100000 nM
MDA-MB-468 breast
  GI50: 169 nM
  TGI: 548 nM
HOP-92 NSCLC
  GI50: 511 nM
  TGI: > 91700 nM
CAKI-1 renal
  GI50: 391 nM
  TGI: > 100000 nM
SNB-75 CNS
  GI50: 280 nM
  TGI: 1400 nM
786-0 renal
  GI50: 434 nM
  TGI: > 100000 nM
K-562 leukemia
  GI50: 589 nM
  TGI: > 100000 nM
SR leukemia
  GI50: 45.1 nM
  TGI: 2480 nM
NCI/ADR-RES ovarian
  GI50: 253 nM
  TGI: 1210 nM
HCT-15 colon
  GI50: 240 nM
  TGI: > 100000 nM
MALME-3M melanoma
  GI50: 952 nM
  TGI: 3710 nM
ACHN renal
  GI50: 210 nM
  TGI: 5200 nM
SNB-19 CNS
  GI50: 319 nM
  TGI: > 100000 nM
KM12 colon
  GI50: 342 nM
  TGI: > 76000 nM
DU-145 prostate
  GI50: 315 nM
  TGI: > 100000 nM
LOX IMVI melanoma
  GI50: 239 nM
  TGI: > 100000 nM
SK-MEL-5 melanoma
  GI50: 144 nM
  TGI: 5650 nM
PC-3 prostate
  GI50: 338 nM
  TGI: > 100000 nM
RXF 393 renal
  GI50: 215 nM
  TGI: 477 nM
BT-549 breast
  GI50: 160 nM
  TGI: 1400 nM
HOP-62 NSCLC
  GI50: 413 nM
  TGI: > 100000 nM
SK-OV-3 ovarian
  GI50: 4040 nM
  TGI: > 100000 nM
NCI-H226 lung
  GI50: 475 nM
  TGI: > 100000 nM
A549 NSCLC
  GI50: 283 nM
  TGI: > 100000 nM
HCC-2998 colon
  GI50: 588 nM
  TGI: 7530 nM
A498 renal
  GI50: 312 nM
  TGI: 919 nM
RPMI-8226 leukemia
  GI50: 279 nM
  TGI: 28500 nM
MCF7 breast
  GI50: 324 nM
  TGI: > 100000 nM
T-47D breast
  GI50: 427 nM
  TGI: > 100000 nM
UACC-62 melanoma
  GI50: 347 nM
  TGI: 1390 nM
EKVX NSCLC
  GI50: 469 nM
  TGI: 4560 nM
TK-10 renal
  GI50: 737 nM
  TGI: > 100000 nM
HL-60(TB) leukemia
  GI50: 308 nM
  TGI: 2290 nM
MDA-MB-435
  GI50: 613 nM
  TGI: > 100000 nM
HT29 colon
  GI50: 1520 nM
  TGI: > 100000 nM
